The results in this text go back to patent US5663196A, “Methods for treating neoplastic disorders” (Boston University, priority 1993, dated 1997).

Assay type in all cases: cell-based
Assay [1] concerns BW8767 cells (BW resistant mutant). The assay is described as follows: Trypan Blue cell viability, BW8767. The settings on record: Mus musculus, read-out: Trypan Blue Cell Viability (%). The source says:
1) The Trypan Blue Dye Exclusion Test for monitoring ceil viability as described by Phillips, H. J., in Tissue Culture Methods and Applications; Kruse, P. F., Jr., Patterson, M. K., Eds.; Academic Press, New York, 1973, 406, and by Wu, Y. W., Chik, L. L., Knazek, R. A. Cancer Research 1989, 49, 3754. The results of this assay are expressed as a percentage of viable cells:
[% viable cells]=[no. of alive cells]/[total no. of cells]×100
where the total no. cells=dead cells+alive cells. The results are compared directly with an untreated control, which typically show a three-to-four-fold increase for cancer cells, and a two-fold increase for normal cells. Treatments resulting in [% viable cells] of <30% are considered cytotoxic. Therefore, the trypan blue dye exclusion test was used to assess the number of dead and alive cells using various cell lines upon treatment with the crude and purified agent. This test provides a simple clue to the acute or late onset of a cytotoxic response. Readings for this and all other in vitro assays were taken 48 hours after treatment with the unpurified agent, and also […] after treatment for the purified agent. Thus, the trypan blue dye exclusion assay functions to confirm whether or not the cells were viable at the time readings were taken for other bioassays.
The final in vitro assays performed with the preferred purified active agent were intended to examine the scope of the activity in the trypan blue assay against a wider range of tumor cell lines (Tables 10 and 11). These cell lines included a […] lymphoma BW8767, a BW mutant which is more resistant than the BW cell lines used in other assays, as evidenced by the results in Tables 10 and 11.

Assay [2] relates to EL-4 cells (type T lymphoma). In words: 3H-Thymidine Incorporation, EL-4. The following applies: Mus musculus, read-out: 3H-Thymidine Incorporation (DNA Synthesis) Inhibition (%). The source says:
(§1) 2) The ^3 H-Thymidine Incorporation Test as described by Ju, S. T., Dorf, M. E. J. Immunol. 1985, 134, 3722. This test was used for monitoring cellular proliferation by monitoring DNA synthesis. The results are expressed as percent ^3 H-thymidine incorporation relative to an untreated control:
(§2) [% ^3 H-thymidine incorporation]=[cpm agent treated cells]/[cpm
(§3) where cpm=counts per minute. Treatments resulting in [% ^3 H-thymidine incorporation] of <50% are considered active.
(§4) The ^3 H-thymidine incorporation assay therefore measures the amount of DNA synthesis when the cells are in the "S" phase of the cell cycle, and is used to assess cell proliferation. Cancer cells, which have a very rapid cell cycle turnover, normally incorporate large amounts of tritium (^3 H) unless inhibited by an exogenous agent. […] While the trypan blue dye exclusion test is an indicator of cell death, the ^3 H-thymidine incorporation test indicates a cytostatic status (not necessarily cytotoxic) of the cell. As previously noted, this latter test was the primary screen used to guide the isolation to the active agent.
A general note: Incorporation of labelled thymidine or its analogues reports DNA synthesis.

A further assay deals with C7 cloned T-cells. In words: 3H-Thymidine Incorporation, C7. The settings on record: Mus musculus, T-cell, read-out: 3H-Thymidine Incorporation (DNA Synthesis) Inhibition (%).
Excerpt: as §1, §2, §3, §4
Each of these three fractions were then tested in the trypan blue and ^3 H-thymidine incorporation assays along with the original CsA as a control, against the LS cell line, which was the most sensitive of the cancer lines (Tables 3 and 4). […] The results of the trypan blue and ^3 H-thymidine incorporation assays against the three cell lines are compiled in Tables 5a-5f.

A further assay has as its system LK lymphoma cells. The assay is described as follows: 35S-Methionine Incorporation (protein synthesis), LK. The settings on record: Mus musculus; for activity at 1 µg/mL: 1 μg/mL; for activity at 10 µg/mL: 10 μg/mL. The source says:
3) ^35 S-Methionine Incorporation Test as described by Sorenson, C. M., Barry, M. A., Eastman, A. J. Natl. Canc. Inst. 1990, 82, 749. The results are expressed as percent ^35 S-methionine incorporation relative to an untreated control:
[% ^35 S-methionine incorporation]=[cpm agent treated cells]/[cpm
where cpm=counts per minute. Treatments resulting in [% ^35 S-methionine incorporation] of <50% are considered active.
The ^35 S-methionine incorporation test therefore measures protein synthesis. Activity in this bioassay could arise from inhibition of transcription and/or translation.
In this test, BW and LK lymphoma cells were treated with the preferred purified active agent at 1 μg/mL and 10 μg/mL for comparison with an untreated control. The treated cells were split into two groups, one of which was thoroughly washed to remove the preferred purified active agent prior to incubation with ^35 S-methionine.

As to `CC1=C2C(=O)C=C(CO)[C@@H]2[C@H]2OC(=O)[C@@H](C)[C@@H]2[C@@H](O)C1` [11β,13-dihydrolactucin, 3,6-dimethyl-4-hydroxy-9-hydroxymethyl-3,3a,4,5,9a,9b-hexahydroazuleno[4,5-b]furan-2,7-dione], in assay [1], the viability (as a rule, the share of living cells, or the viability signal relative to a control) at 0.1 µg/mL worked out at 100%. Besides, the viability at 0.5 µg/mL in assay [1] was determined as 100%. Also, in assay [1], the viability at 1 µg/mL was found to be 100%. Moreover, in assay [1], the viability at 10 µg/mL was 100%. The inhibition at 0.1 µg/mL came to 100% in assay [2] (EL4, 0.1 μg/mL) and 100% in the assay on C7 cloned T-cells (0.1 μg/mL). The inhibition at 0.5 µg/mL was 100% in assay [2] (EL4, 0.5 μg/mL) and 100% with C7 cloned T-cells (0.5 μg/mL). Moreover, the inhibition at 1 µg/mL was found to be 78% in assay [2] (EL4, 1.0 μg/mL) and 100% in the assay with C7 cloned T-cells (1.0 μg/mL). Further, the inhibition at 10 µg/mL was 38% in assay [2] (EL4, 10 μg/mL) and 75% with C7 cloned T-cells (10 μg/mL). Besides, the activity at 1 µg/mL worked out at 100% with LK lymphoma cells (LK (washed)) and 50% with LK lymphoma cells (LK, unwashed). The activity at 10 µg/mL worked out at 100% in the assay on LK lymphoma cells (LK (washed)) and 10% in the assay with LK lymphoma cells (LK, unwashed).
